Data: patent US20120015938A1, “1,4-BENZODIAZEPIN-2-ON DERIVATIVES” (MSD K.K., priority 2009, published 2012)
pIC50: −log10 of the molar value.

Biological target: T1, Human DGAT1 (Homo sapiens, UniProt O75907)
T1 construct: made in house; host or cells: Pichia pastoris (printed 'Pichia pastris'), vector pPICZA; membrane fraction
T1 sequence (O75907 1-488): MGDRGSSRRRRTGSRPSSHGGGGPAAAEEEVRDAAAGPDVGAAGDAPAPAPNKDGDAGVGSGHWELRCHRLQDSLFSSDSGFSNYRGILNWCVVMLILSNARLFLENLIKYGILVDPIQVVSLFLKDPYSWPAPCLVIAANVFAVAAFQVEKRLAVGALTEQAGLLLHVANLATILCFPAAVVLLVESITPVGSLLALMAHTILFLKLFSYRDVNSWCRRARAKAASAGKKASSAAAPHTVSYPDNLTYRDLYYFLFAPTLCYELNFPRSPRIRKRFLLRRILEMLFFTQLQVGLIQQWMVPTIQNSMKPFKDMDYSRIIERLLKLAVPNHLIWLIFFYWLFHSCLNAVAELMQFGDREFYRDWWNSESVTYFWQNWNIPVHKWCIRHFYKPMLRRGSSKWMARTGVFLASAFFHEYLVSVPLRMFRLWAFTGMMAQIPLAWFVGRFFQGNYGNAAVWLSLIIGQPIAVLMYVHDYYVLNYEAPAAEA
Assay: DGAT1 Inhibitory Activity Test
Type: biochemical
Conditions: DGAT1-expressed yeast membrane fraction, [14C]-oleoyl-CoA, room temperature 30 minutes
Experimental: Cloning of Human DGAT1 Gene and Expression in Yeast
Human DGAT1 genes were amplified by PCR using primers described below from human cDNA library (Clontech).
The amplified human DGAT1 genes were introduced into a yeast expression vector pPICZA (Invitrogen). The resultant expression plasmid was introduced into an yeast (Pichia pastris) by electroporation to produce a recombinant yeast. The recombination yeast was cultured in the presence of 0.5% methanol for 72 hours, and the cells were crushed using glass beads in 10 mM Tris pH 7.5, 250 mM sucrose and 1 mM EDTA, followed by adjusting the membrane fraction by centrifugation to use the adjusted membrane fraction as an enzyme source.
To the reaction liquid having the following composition: 100 mM Tris pH 7.5, 100 mM MgCl2, 100 mM sucrose, 40 μM dioelin, 15 μM [^14C]-oleoyl-CoA, 0.25 μg of test substance, DGAT1-expressed yeast membrane fraction, was added, and the mixture having a volume of 100 μl was incubated at room temperature for 30 minutes. To the reaction liquid, 100 μl of 2-propanol/heptan/H2O (80:20:2) was added, the mixture was stirred well, followed by adding 200 μl of heptane and further stirring the mixture. After centrifugation, the heptane layer was collected, ethanol/0.1N NaOH/H2O (50:5:45) was added, the mixture was thus stirred, followed by re-centrifuging the mixture and collecting the heptane layer. After exsiccation of the resultant heptane layer, 100 μl of Microscint 0 (PerkinElmer) was added, and the radioactivity was measured with a liquid scintillation counter. The inhibitory activity was calculated from the following formula:
Inhibition rate=100−(radioactivity in case of addition of test compound−background)/(radioactivity in case of addition of no test compound−background)×100 wherein the background means the radioactivity in case of addition of no membrane fraction.

SMILES	pIC50
CN1C(=O)C(NC(=O)C(C)(C)NC(=O)c2ccc(F)cc2)N=C(Cc2ccc(OC(F)(F)F)cc2)c2cc(F)ccc21 (single isomer, unassigned) [Example 1 Enantiomer A, 4-fluoro-N-[2-({7-fluoro-1-methyl-2-oxo-5-[4-(trifluoromethoxy)benzyl]-2,3-dihydro-1H-1,4-benzodiazepin-3-yl}amino)-1,1-dimethyl-2-oxoethyl]benzamide]	6.32
CN1C(=O)C(NC(=O)C(C)(C)NC(=O)c2ccc(F)cc2)N=C(Cc2ccc(OC(F)(F)F)cc2)c2cc(F)ccc21 (single isomer, unassigned) [Example 1 Enantiomer B, 4-fluoro-N-[2-({7-fluoro-1-methyl-2-oxo-5-[4-(trifluoromethoxy)benzyl]-2,3-dihydro-1H-1,4-benzodiazepin-3-yl}amino)-1,1-dimethyl-2-oxoethyl]benzamide]	6.88
CN1C(=O)C(NC(=O)C(C)(C)NC(=O)c2ccccc2)N=C(Cc2ccc(OC(F)(F)F)cc2)c2cc(F)ccc21 (single isomer, unassigned) [Example 2 Enantiomer A, N-[2-({7-fluoro-1-methyl-2-oxo-5-[4-(trifluoromethoxy)benzyl]-2,3-dihydro-1H-1,4-benzodiazepin 3-yl}amino)-1,1-dimethyl-2-oxoethyl]benzamide]	6.24
CN1C(=O)C(NC(=O)C(C)(C)NC(=O)c2ccccc2)N=C(Cc2ccc(OC(F)(F)F)cc2)c2cc(F)ccc21 (single isomer, unassigned) [Example 2 Enantiomer B, N-[2-({7-fluoro-1-methyl-2-oxo-5-[4-(trifluoromethoxy)benzyl]-2,3-dihydro-1H-1,4-benzodiazepin 3-yl}amino)-1,1-dimethyl-2-oxoethyl]benzamide]	6.79
CN1C(=O)C(NC(=O)C(C)(C)NC(=O)c2ccc(F)cc2)N=C(Cc2ccc(OC(F)(F)F)cc2)c2ccccc21 (single isomer, unassigned) [Example 3 Enantiomer A, N-[1,1-dimethyl-2-({1-methyl-2-oxo-5-[4-(trifluoromethoxy)benzyl]-2,3-dihydro-1H-1,4-benzodiazepin-3-yl}amino)-2-oxoethyl]-4-fluorobenzamide]	6.74
CN1C(=O)C(NC(=O)C(C)(C)NC(=O)c2ccc(F)cc2)N=C(Cc2ccc(OC(F)(F)F)cc2)c2ccccc21 (single isomer, unassigned) [Example 3 Enantiomer B, N-[1,1-dimethyl-2-({1-methyl-2-oxo-5-[4-(trifluoromethoxy)benzyl]-2,3-dihydro-1H-1,4-benzodiazepin-3-yl}amino)-2-oxoethyl]-4-fluorobenzamide]	6.90
CN1C(=O)C(NC(=O)C(C)(C)NC(=O)c2ccccc2)N=C(Cc2ccc(OC(F)(F)F)cc2)c2ccccc21 (single isomer, unassigned) [Example 4 Enantiomer A, N-[1,1-dimethyl-2-({1-methyl-2-oxo-5-[4-(trifluoromethoxy)benzyl]-2,3-dihydro-1H-1,4-benzodiazepin-3-yl}amino)-2-oxoethyl]benzamide]	6.51
CN1C(=O)C(NC(=O)C(C)(C)NC(=O)c2ccccc2)N=C(Cc2ccc(OC(F)(F)F)cc2)c2ccccc21 (single isomer, unassigned) [Example 4 Enantiomer B, N-[1,1-dimethyl-2-({1-methyl-2-oxo-5-[4-(trifluoromethoxy)benzyl]-2,3-dihydro-1H-1,4-benzodiazepin-3-yl}amino)-2-oxoethyl]benzamide]	6.90
